37 compounds from patent publication US20240376126A1, “PRMT5 INHIBITOR AND THE USE THEREOF” (CYTOSINLAB THERAPEUTICS CO., LTD., priority 2022, published 2024) can be followed below.

The test system of assay [1] is HCT116-MTAP-KO (MTAP null) cells. The assay can be described thus: Proliferation inhibition of HCT116 MTAP-KO cells in vitro (CellTiter Glo, 6 days). It is filed as cell-based. The settings on record: HCT116-MTAP null, 144 h, read-out: Cell proliferation inhibition rate HCT116-MTAP null IC50 (nm). For orientation: Cellular ATP, detected with luciferase, serves as a proxy for viable cell number.

The next assay has as its system HCT116 MTAP WT cells. The assay can be described thus: Proliferation inhibition of HCT116 cells in vitro (CellTiter Glo, 6 days). It is filed as cell-based. As to conditions: Homo sapiens, HCT-116, 144 h, read-out: Cell proliferation inhibition rate HCT116 MTAP WT IC50 (nm).

Some results are limits rather than exact numbers.

In the case of `Cc1nn(C)cc1N(Cc1cc2ccc(C(F)(F)F)cn2n1)C(=O)c1cc2c(cc1F)nc(N)c1cnc(C)n12` [Example 236], the IC50 was less than 0.1 µM in assay [1] and 1 to 10 µM with HCT116 MTAP WT cells.
Take `Cc1nn(C)cc1N(Cc1nc2ccccc2[nH]1)C(=O)c1cc2c(cc1F)nc(N)c1c(C)ncn12` [Example 237]: the IC50 in assay [1] was in the range of 0.1 to 1 µM; in the assay on HCT116 MTAP WT cells, 1 to 10 µM.
Take `Cc1ncc2c(N)nc3cc(F)c(C(=O)N(Cc4cn5cc(C(F)(F)F)ccc5n4)c4ccnn4C)cc3n12` [Example 239]: the IC50 in assay [1] is less than 0.1 µM; with HCT116 MTAP WT cells, 1 to 10 µM.
For the compound `Cc1ncc2c(N)nc3cc(F)c(C(=O)N(Cc4cn5cc(C(F)(F)F)ccc5n4)c4c(F)cnn4C)cc3n12` [Example 241, 4-amino-7-fluoro-N-(4-fluoro-2-methyl-pyrazol-3-yl)-1-methyl-N-[[6-(trifluoromethyl)imidazolo [1,2-a]pyridin-2-yl]methyl] imidazolo [1,5-a] quinoxalin-8-carboxamide], the results for the IC50 (in assay [1]; with HCT116 MTAP WT cells) were less than 0.1 µM and 0.1 to 1 µM, respectively.
For `CCn1nccc1N(Cc1cn2cc(C(F)(F)F)ccc2n1)C(=O)c1cc2c(cc1F)nc(N)c1cnc(C)n12` [Example 242] the same measures were less than 0.1 µM and 0.1 to 1 µM.
Consider `Cc1ncc2c(N)nc3cc(F)c(C(=O)N(Cc4cn5cc(CN6CCOCC6)ccc5n4)c4ccnn4C)cc3n12` [Example 243], for which the IC50 was in the range of 0.1 to 1 µM in assay [1] and 1 to 10 µM with HCT116 MTAP WT cells.
Consider `Cc1ncc2c(N)nc3cc(F)c(C(=O)N(Cc4cn5ccccc5n4)c4ccnn4C)cc3n12` [Example 244], for which the IC50 in assay [1] was less than 0.1 µM; in the assay on HCT116 MTAP WT cells, 1 to 10 µM.
In the same order, the values of `Cc1ncc2c(N)nc3cc(F)c(C(=O)N(Cc4nc5ccc(C(F)(F)F)cc5[nH]4)c4ccnn4C)cc3n12` [Example 245] are less than 0.1 µM and 1 to 10 µM.
Regarding `Cc1ncc2c(N)nc3cc(F)c(C(=O)N(Cc4cn5cc(C(F)(F)F)ccc5n4)c4ccnn4C(F)F)cc3n12` [Example 246], the values for the IC50 (in assay [1]; in the assay with HCT116 MTAP WT cells) were less than 0.1 µM and 1 to 10 µM, respectively.
For `CCN(Cc1cn2cc(-c3cnn(C)c3)ccc2n1)C(=O)c1cc2c(cc1F)nc(N)c1cnc(C)n12` [Example 247], the IC50 lay within 0.1 to 1 µM in assay [1] and 1 to 10 µM with HCT116 MTAP WT cells.
For the compound `CCN(Cc1cn2cc(CN3CCOCC3)ccc2n1)C(=O)c1cc2c(cc1F)nc(N)c1c(C)ncn12` [Example 249], the results for the IC50 (in assay [1]; in the assay on HCT116 MTAP WT cells) were 0.1 to 1 µM and 1 to 10 µM, respectively.
With `CCN(Cc1cc2ccccn2n1)C(=O)c1cc2c(cc1F)nc(N)c1cnc(C)n12` [Example 250], the IC50 is less than 0.1 µM in assay [1] and 1 to 10 µM in the assay with HCT116 MTAP WT cells.
Regarding `Cc1ncc2c(N)nc3cc(F)c(C(=O)N(Cc4cn5ccccc5n4)CC(F)F)cc3n12` [Example 252], the IC50 lay within 0.1 to 1 µM in assay [1] and 1 to 10 µM with HCT116 MTAP WT cells.
For `Cc1ncn2c1c(N)nc1cc(F)c(C(=O)N(Cc3cn4cc(C#N)ccc4n3)c3cnn(C)c3)cc12` [Example 253], the results for the IC50 (in assay [1]; in the assay on HCT116 MTAP WT cells) were 0.1 to 1 µM and 1 to 10 µM, respectively.
As to `Cc1ncn2c1c(N)nc1cc(F)c(C(=O)N(Cc3cn4cc(CN5CCOCC5)ccc4n3)c3cnn(C)c3)cc12` [Example 254], the IC50 in assay [1] fell in the range of 0.1 to 1 µM; with HCT116 MTAP WT cells, 1 to 10 µM.
For `Cc1ncn2c1c(N)nc1cc(F)c(C(=O)N(Cc3cn4ccccc4n3)c3cnn(C)c3C)cc12` [Example 255] the same measures were 0.1 to 1 µM and 1 to 10 µM.
For `Cc1ncn2c1c(N)nc1cc(F)c(C(=O)N(Cc3cn4ccccc4n3)c3cnn(C)c3)cc12` [Example 257] the same measures were 0.1 to 1 µM and 1 to 10 µM.
`CCN(Cc1cn2cc(-c3cnn(C)c3)ccc2n1)C(=O)c1cc2c(cc1F)nc(N)c1c(C)ncn12` [Example 258]: the IC50 is 0.1 to 1 µM in assay [1] and 1 to 10 µM in the assay with HCT116 MTAP WT cells.
On to `Cc1ncn2c1c(N)nc1cc(F)c(C(=O)N(Cc3cn4cc(C(F)(F)F)ccc4n3)c3cnn(C)c3)cc12` [Example 259], for which the IC50 is less than 0.1 µM in assay [1] and 1 to 10 µM in the assay on HCT116 MTAP WT cells.
Regarding `Cc1ncn2c1c(N)nc1cc(F)c(C(=O)N(Cc3cn4ccccc4n3)C3CCC3O)cc12` (centres unmarked) [Example 261], the IC50 lay within 0.1 to 1 µM in assay [1] and 1 to 10 µM in the assay with HCT116 MTAP WT cells.
For the compound `Cc1ncn2c1c(N)nc1cc(F)c(C(=O)N(Cc3cn4ccccc4n3)c3cnn(C)n3)cc12` [Example 262], the IC50 is less than 0.1 µM in assay [1] and 1 to 10 µM in the assay on HCT116 MTAP WT cells.
As to `CCN(Cc1cn2cc(OC)ccc2n1)C(=O)c1cc2c(cc1F)nc(N)c1c(C)ncn12` [Example 263], the IC50 in assay [1] fell in the range of 0.1 to 1 µM; with HCT116 MTAP WT cells it was 1 to 10 µM.
As for `Cc1ncn2c1c(N)nc1cc(F)c(C(=O)N(CCC#N)Cc3cn4ccccc4n3)cc12` [Example 264], the figures for the IC50 (in assay [1]; in the assay on HCT116 MTAP WT cells) were 0.1 to 1 µM and 1 to 10 µM, respectively.
Regarding `CCN(Cc1cn2cc(F)ccc2n1)C(=O)c1cc2c(cc1F)nc(N)c1c(C)ncn12` [Example 267], the figures for the IC50 (in assay [1]; in the assay on HCT116 MTAP WT cells) were less than 0.1 µM and 1 to 10 µM, respectively.
Take `CCN(Cc1cn2ccccc2n1)C(=O)c1cc2c(cc1C)nc(N)c1cnc(C)n12` [Example 268]: the IC50 in assay [1] is 0.1 to 1 µM; with HCT116 MTAP WT cells it was 1 to 10 µM.
As to `Cc1ncn2c1c(N)nc1cc(F)c(C(=O)N(Cc3nc4ccc(C(F)(F)F)cc4[nH]3)CC(C)C)cc12` [Example 269], the IC50 in assay [1] lay in the range of 0.1 to 1 µM; with HCT116 MTAP WT cells, 1 to 10 µM.
`COCC(C)N(Cc1cn2ccccc2n1)C(=O)c1cc2c(cc1F)nc(N)c1c(C)ncn12` (centres unmarked) [Example 271]: the IC50 in assay [1] was less than 0.1 µM; with HCT116 MTAP WT cells, 1 to 10 µM.
With `CCN(Cc1cn2c(C)cccc2n1)C(=O)c1cc2c(cc1F)nc(N)c1c(C)ncn12` [Example 272], the IC50 was 0.1 to 1 µM in assay [1] and 1 to 10 µM in the assay on HCT116 MTAP WT cells.
Regarding `COC1CC(N(Cc2cn3ccccc3n2)C(=O)c2cc3c(cc2F)nc(N)c2c(C)ncn23)C1` (centres unmarked) [Example 273], the IC50 is less than 0.1 µM in assay [1] and 1 to 10 µM in the assay on HCT116 MTAP WT cells.
For the compound `CCN(Cc1cn2ccccc2n1)C(=O)c1cc2c(cc1F)nc(N)c1c(C)ncn12` [Example 274], the IC50 is 0.1 to 1 µM in assay [1] and 1 to 10 µM in the assay with HCT116 MTAP WT cells.
On to `Cc1ncc2c(N)nc3cc(F)c(C(=O)N(Cc4nc5ccc(C(F)(F)F)cc5[nH]4)CC(C)C)cc3n12` [Example 276], for which the IC50 in assay [1] is 0.1 to 1 µM; in the assay on HCT116 MTAP WT cells it was 1 to 10 µM.
For `Cc1ncn2c1c(N)nc1cc(F)c(C(=O)N(Cc3cn4ccccc4n3)CC(C)C)cc12` [Example 277] the same measures were less than 0.1 µM and 1 to 10 µM.
Regarding `COC1CCCC1N(Cc1cn2ccccc2n1)C(=O)c1cc2c(cc1F)nc(N)c1c(C)ncn12` (centres unmarked) [Example 278], the IC50 was less than 0.1 µM in assay [1] and 1 to 10 µM in the assay on HCT116 MTAP WT cells.
For `CCN(Cc1cn2ccccc2n1)C(=O)c1ccc2nc(N)c3ncc(C)n3c2c1` [Example 279], the values for the IC50 (in assay [1]; in the assay with HCT116 MTAP WT cells) were 0.1 to 1 µM and 1 to 10 µM, respectively.
In the case of `Cc1ncn2c1c(N)nc1cc(F)c(C(=O)N(Cc3cn4cc(C(F)(F)F)ccc4n3)C3CCC3O)cc12` (centres unmarked) [Example 280], the IC50 is 0.1 to 1 µM in assay [1] and 1 to 10 µM in the assay on HCT116 MTAP WT cells.
On to `Cc1ncn2c1c(N)nc1cc(F)c(C(=O)N(Cc3cn4cc(C(F)(F)F)ccc4n3)CC(C)C)cc12` [Example 282], for which the IC50 is less than 0.1 µM in assay [1] and 1 to 10 µM in the assay with HCT116 MTAP WT cells.
`COC1CCC1N(Cc1cn2cc(C(F)(F)F)ccc2n1)C(=O)c1cc2c(cc1F)nc(N)c1c(C)ncn12` (centres unmarked) [Example 284]: the IC50 in assay [1] was less than 0.1 µM; with HCT116 MTAP WT cells it was 0.1 to 1 µM.
